From patent publication US20240408086A1, “USE OF LUVADAXISTAT FOR THE TREATMENT OF COGNITIVE IMPAIRMENT” (TAKEDA PHARMACEUTICAL COMPANY LIMITED, priority 2021, published 2024)

Test system: adult patients with persistent negative symptoms of schizophrenia
Type: in vivo, human
Source text: To assess changes in cognitive impairment associated with schizophrenia (CIAS), secondary endpoints included the 12-week change from baseline in the Brief Assessment of Cognition in Schizophrenia (BACS) composite score, a measure of cognition across multiple domains, and the Schizophrenia Cognition Rating Scale (SCORS) score, a measure of day-to-day cognitive functioning requiring input from an adult informant. Secondary endpoints were not corrected for multiplicity.
The BACS is specifically designed to measure treatment-related improvements in cognition and includes alternate forms. BACS is a reliable and sensitive measure of cognitive function in schizophrenia. The BACS is a cognition assessment battery that assesses 6 domains of cognitive function found to be consistently impaired in schizophrenia: verbal memory; working memory; motor speed; attention; executive functions; and verbal fluency. The primary measure from each test of the BACS is standardized by creating T-scores whereby the mean of the test session of a matched reference healthy participant is set to 50 and the standard deviation set to 10.

[1] = 125 mg once daily, preliminary analysis
[2] = 500 mg once daily, MMRM, preliminary analysis
[3] = 500 mg once daily, preliminary analysis

## O=c1[nH]nc(CCc2ccc(C(F)(F)F)cc2)cc1O [Compound (I), luvadaxistat]
[1]
  BACS Working Memory Cognition Domain, Change from Baseline to Week 6, Median: 2.0
  BACS Working Memory Cognition Domain, Change from Baseline to Week 12, Mean (SD): 1.8 (7.40)
  BACS Working Memory Cognition Domain, Change from Baseline to Week 12, Median: 0.0
  BACS Working Memory Cognition Domain, Week 6, Mean (SD): 41.0 (11.17)
  BACS Working Memory Cognition Domain, Week 6, Median: 41.0
  BACS Working Memory Cognition Domain, Week 12, Mean (SD): 41.7 (13.58)
  BACS Working Memory Cognition Domain, Week 12, Median: 40.0
125 mg, Week 6
  BACS Attention Cognition Domain, Change from Baseline to Week 6, Mean (SD): 2.2 (6.07)
  BACS Attention Cognition Domain, Change from Baseline to Week 6, Median: 2.0
  BACS Attention Cognition Domain, Week 6, Mean (SD): 36.7 (12.72)
  BACS Attention Cognition Domain, Week 6, Median: 37.0
  BACS Executive Functions Cognition Domain, Change from Baseline to Week 6, Mean (SD): 0.8 (9.01)
  BACS Executive Functions Cognition Domain, Change from Baseline to Week 6, Median: 0.0
  BACS Executive Functions Cognition Domain, Week 6, Mean (SD): 46.3 (16.06)
  BACS Executive Functions Cognition Domain, Week 6, Median: 50.0
  BACS Verbal Fluency Cognition Domain, Change from Baseline to Week 6, Mean (SD): 0.8 (4.53)
  BACS Verbal Fluency Cognition Domain, Change from Baseline to Week 6, Median: 1.0
  BACS Verbal Fluency Cognition Domain, Week 6, Mean (SD): 39.1 (8.98)
  BACS Verbal Fluency Cognition Domain, Week 6, Median: 40.0
125 mg, Week 6, MMRM
  BACS Attention Cognition Domain, Adjusted Change from Baseline to Week 6, LS Mean (SE): 2.2 (0.88)
  BACS Attention Cognition Domain, Difference from Placebo for Week 6, LS Mean (SE): 1.2 (1.12)
  BACS Executive Functions Cognition Domain, Adjusted Change from Baseline to Week 6, LS Mean (SE): 0.8 (1.19)
  BACS Executive Functions Cognition Domain, Difference from Placebo for Week 6, LS Mean (SE): 2.0 (1.53)
  BACS Verbal Fluency Cognition Domain, Adjusted Change from Baseline to Week 6, LS Mean (SE): 0.7 (0.68)
  BACS Verbal Fluency Cognition Domain, Difference from Placebo for Week 6, LS Mean (SE): 0.6 (0.87)
125 mg, Week 12
  BACS Attention Cognition Domain, Change from Baseline to Week 12, Mean (SD): 1.2 (6.41)
  BACS Attention Cognition Domain, Change from Baseline to Week 12, Median: 2.0
  BACS Attention Cognition Domain, Week 12, Mean (SD): 36.2 (12.21)
  BACS Attention Cognition Domain, Week 12, Median: 36.0
  BACS Executive Functions Cognition Domain, Change from Baseline to Week 12, Mean (SD): 2.0 (8.79)
  BACS Executive Functions Cognition Domain, Change from Baseline to Week 12, Median: 3.0
  BACS Executive Functions Cognition Domain, Week 12, Mean (SD): 47.6 (13.17)
  BACS Executive Functions Cognition Domain, Week 12, Median: 51.0
  BACS Verbal Fluency Cognition Domain, Change from Baseline to Week 12, Mean (SD): 2.1 (5.59)
  BACS Verbal Fluency Cognition Domain, Change from Baseline to Week 12, Median: 2.0
  BACS Verbal Fluency Cognition Domain, Week 12, Mean (SD): 40.6 (9.54)
  BACS Verbal Fluency Cognition Domain, Week 12, Median: 39.0
125 mg, Week 12, MMRM
  BACS Attention Cognition Domain, Adjusted Change from Baseline to Week 12, LS Mean (SE): 1.4 (1.01)
  BACS Attention Cognition Domain, Difference from Placebo for Week 12, LS Mean (SE): −0.5 (1.29)
  BACS Executive Functions Cognition Domain, Adjusted Change from Baseline to Week 12, LS Mean (SE): 2.0 (1.09)
  BACS Executive Functions Cognition Domain, Difference from Placebo for Week 12, LS Mean (SE): 1.4 (1.38)
  BACS Verbal Fluency Cognition Domain, Adjusted Change from Baseline to Week 12, LS Mean (SE): 1.9 (0.84)
  BACS Verbal Fluency Cognition Domain, Difference from Placebo for Week 12, LS Mean (SE): 0.9 (1.07)
500 mg once daily, MMRM, one-sided unadjusted p 0.070, preliminary analysis
  BACS Verbal Memory Cognition Domain, Difference from Placebo for Week 6, LS Mean (SE): 2.0 (1.33)
500 mg once daily, MMRM, one-sided unadjusted p 0.194, preliminary analysis
  BACS Composite Score, Difference from Placebo for Week 6, LS Mean (SE): 0.9 (1.04)
500 mg once daily, MMRM, one-sided unadjusted p 0.260, preliminary analysis
  BACS Composite Score, Difference from Placebo for Week 12, LS Mean (SE): 0.8 (1.20)
500 mg once daily, MMRM, one-sided unadjusted p 0.329, preliminary analysis
  BACS Verbal Memory Cognition Domain, Difference from Placebo for Week 12, LS Mean (SE): 0.7 (1.49)
500 mg once daily, MMRM, one-sided unadjusted p 0.405, preliminary analysis
  BACS Motor Speed Cognition Domain, Difference from Placebo for Week 12, LS Mean (SE): 0.3 (1.22)
500 mg once daily, MMRM, one-sided unadjusted p 0.637, preliminary analysis
  BACS Working Memory Cognition Domain, Difference from Placebo for Week 12, LS Mean (SE): −0.5 (1.40)
500 mg once daily, MMRM, one-sided unadjusted p 0.788, preliminary analysis
  BACS Working Memory Cognition Domain, Difference from Placebo for Week 6, LS Mean (SE): −0.9 (1.19)
500 mg once daily, MMRM, one-sided unadjusted p 0.812, preliminary analysis
  BACS Motor Speed Cognition Domain, Difference from Placebo for Week 6, LS Mean (SE): −1.1 (1.30)
[2]
  BACS Composite Score, Adjusted Change from Baseline to Week 6, LS Mean (SE): 0.5 (0.87)
  BACS Composite Score, Adjusted Change from Baseline to Week 12, LS Mean (SE): 1.5 (0.99)
  BACS Motor Speed Cognition Domain, Adjusted Change from Baseline to Week 6, LS Mean (SE): −1.3 (1.07)
  BACS Motor Speed Cognition Domain, Adjusted Change from Baseline to Week 12, LS Mean (SE): −0.2 (1.02)
  BACS Verbal Memory Cognition Domain, Adjusted Change from Baseline to Week 6, LS Mean (SE): 0.7 (1.11)
  BACS Verbal Memory Cognition Domain, Adjusted Change from Baseline to Week 12, LS Mean (SE): 0.0 (1.23)
  BACS Working Memory Cognition Domain, Adjusted Change from Baseline to Week 6, LS Mean (SE): −0.9 (0.98)
  BACS Working Memory Cognition Domain, Adjusted Change from Baseline to Week 12, LS Mean (SE): 0.2 (1.15)
[3]
  BACS Composite Score, Change from Baseline to Week 6, Mean (SD): 1.5 (7.57)
  BACS Composite Score, Change from Baseline to Week 6, Median: 1.0
  BACS Composite Score, Change from Baseline to Week 12, Mean (SD): 3.0 (7.98)
  BACS Composite Score, Change from Baseline to Week 12, Median: 3.0
